We go through ten compounds from patent US6911531B2, “Antibodies directed towards a novel human EP prostaglandin receptor” (Allergan, Inc., priority 1994, dated 2005).

Experiment [1] has as its target T1, human HP4 receptor (Homo sapiens, UniProt P43116).
T1 construct: a plasmid with a complete open reading frame in the sense orientation was isolated; expressed in transfected cells; host or cells: COS-7 cells (ATCC CRL 1651), transient DEAE-dextran transfection with pBC/HP4
Put plainly: Competition of [3H]-PGE2 binding to membranes of HP4-transfected COS-7 cells. The settings on record: [3H]-PGE2 5 nM, 100 μg protein/tube, 60 minutes at room temperature; FIG. 1A-1C. Here is the method:
(§1) Monolayers of COS-7 cells (ATCC CRL 1651; 70-80% confluent) were rinsed with Phosphate Buffered Saline (PBS, Ca/Mg-free) in 150×25 mm culture dishes. Ten ml transfection mix, consisting of 5 μ/ml plasmid DNA and 0.5 mg/ml DEAE-dextran in PBS, was added to each dish and cells were incubated for 30 min at 37° C. Nine ml of the solution was removed from each dish followed by the addition of 10 ml of […] chloroquine in Dulbecco's Modified Eagle Medium (DMEM)/5% fetal bovine serum (FBS). The cells were incubated for 2.5 hr at 37° C., the solution aspirated and 10 ml of 10% dimethyl sulfoxide (DMSO) in DMEM/5% FBS was added. After a 2.5 minute incubation at 37° C., the solution was aspirated and 30 ml DMEM/5% FBS was added. The cells were incubated at 37° C. with media changes at 24 and 48 hours. After 72 hours, the media was aspirated and the cells were scraped into cold TME buffer (50 mM Tris-HCl, pH 7.4, 10 mM MgCl2, 1 mM EDTA). The dishes were rinsed with cold TME buffer and the cells combined and placed on ice.
Transfected COS-7 cells were homogenized for 30 seconds at approximately 80% power with a Brinkman PT 10/35 Polytron homogenizer. The resulting homogenate was centrifuged at 19,000 rpm for 20 minutes at 4° C. using a Sorvall SS-34 rotor. The membrane pellet was resuspended in cold TME buffer (1 ml per original dish), frozen in liquid nitrogen and stored at −80° C.
Membrane pellets were then diluted in ice-cold 50 mM Tris-HCl buffer at pH 7.4 using a sonicator set at 50 watts. Membrane suspensions (100 μl) were then added to each assay tube to start the binding reaction. Final concentrations of the competition assay were as follows: [^3H]-PGE2, 5 nM; 100 μg protein/tube in a total volume of 200 μl. Increasing concentrations of compounds to be tested for competitively inhibiting binding were incubated for 60 minutes at room temperature. Contents were aspirated onto a presoaked ice-cold Whatman GF/B filter using a Brandel Cell Harvester and washed three times with ice-cold assay buffer. The filters were dried, placed in scintillation fluid and counted.

The target in experiment [2] is T1, human HP4 receptor. Put plainly: cAMP assay on HP4-transfected COS-7 cells. Type of experiment: cell-based. The settings on record: FIG. 2. On the procedure:
as §1
HP4-transfected COS-7 cells, prepared as described in Example 2, were cultured in DMEM containing 10% FCS, 100 units/ml penicillin, 100 μ/ml streptomycin. […] Cells were trypsinized and resuspended in a small volume of medium (2-3 ml), counted using a hemocytometer and diluted to 7-8×10^4 cells/ml (DMEM/5% FCS). […] The amount of cAMP was quantified as follows. […]

For experiment [3] the following is noted: Nials et al., 1993; cited from earlier work.
A further experiment deals with human neutrophils. The settings on record: Nials et al., 1993; cited from earlier work.
Another experiment deals with human myometrium. The settings on record: Yeardley et al., 1992; cited from earlier work.
For another experiment, the system named is putative EP2 receptor. The note with it: cloned receptor of An et al. 1993 / Honda et al. 1993; cited from earlier work.

T1 sequence (P43116 whole entry): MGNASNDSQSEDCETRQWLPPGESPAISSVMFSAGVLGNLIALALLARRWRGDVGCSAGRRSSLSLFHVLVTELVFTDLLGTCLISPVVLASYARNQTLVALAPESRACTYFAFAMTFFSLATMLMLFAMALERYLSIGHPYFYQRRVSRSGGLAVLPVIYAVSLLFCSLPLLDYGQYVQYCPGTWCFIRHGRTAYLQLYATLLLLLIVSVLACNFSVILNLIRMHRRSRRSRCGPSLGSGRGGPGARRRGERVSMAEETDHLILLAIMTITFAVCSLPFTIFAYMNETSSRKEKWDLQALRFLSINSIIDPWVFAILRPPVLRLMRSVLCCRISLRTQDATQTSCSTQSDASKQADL

Turning to `CCCCC[C@H](O)/C=C/[C@H]1[C@H](O)CC(=O)[C@@H]1CCCCCCCO` [PGE1-1-OH], the “competition of [3H]-PGE2 binding” value on human HP4 receptor [1] was “only slightly active”. The same measure, in the same setting: next, `CCCCC[C@H](O)/C=C/[C@H]1[C@H](O)CC(=O)[C@@H]1CCCCCCC(=O)O` [PGE1]: “strongest competitors”. With `O=C(O)CCCCCC[C@H]1C(=O)CC[C@@H]1/C=C/[C@@H](O)COc1ccccc1` [MB 28767], the “competition of [3H]-PGE2 binding” value at human HP4 receptor [1] is reported as “only slightly active”. As for `CCCCC[C@H](O)/C=C/[C@H]1[C@H](O)CC(=O)[C@@H]1C/C=C\CCCC(=O)O` [PGE2, Prostaglandin E2], the “competition of [3H]-PGE2 binding” value on human HP4 receptor [1] is “strongest competitors”. Besides, the cAMP levels result on human HP4 receptor [2] (IBMX, 3 minutes at 37° C.) was “significantly increased”. Moreover, the “potency order of stimulation of cAMP formation” value on human HP4 receptor [2] (order PGE2, AH13205, butaprost, PGE1-1-OH) is “potently stimulate cAMP formation”. Turning to `CCCCC(C)(C)[C@H](O)/C=C/[C@H]1[C@H](O)CC(=O)[C@@H]1C/C=C\CCCC(=O)O` [16,16-dimethyl PGE2], the “competition of [3H]-PGE2 binding” value on human HP4 receptor [1] is “active”. Still for that read-out and setting: next, `CCCCC[C@H](O)/C=C/[C@H]1CCC(=O)[C@@H]1CCCCCCC(=O)O` [11-deoxy PGE1]: “exhibited competitive activity”. With `CCCCCC(O)c1ccc(C2CCC(=O)C2CCCCCCC(=O)O)cc1` (stereo not shown) [AH13205], the “competition of [3H]-PGE2 binding” value at human HP4 receptor [1] is on record as “displaced”. Besides, the bronchodilation result in experiment [3] was “induce bronchodilation”. In the experiment with human neutrophils, the “release of the inflammatory mediator leukotriene B4” value is recorded as “inhibit”. Besides, the “spontaneous contraction of human myometrium” value in the experiment on human myometrium is “inhibits”. In the case of `C[C@@H](O)CCC[C@H](O)/C=C/[C@H]1[C@H](O)CC(=O)[C@@H]1C/C=C\CCCC(=O)O` [19(R)-hydroxy PGE2], the “competition of [3H]-PGE2 binding” value at human HP4 receptor [1] is “exhibited competitive activity”.

Regarding `CCCC1([C@H](O)C/C=C/[C@H]2[C@H](O)CC(=O)[C@@H]2CCCCCCC(=O)OC)CCC1` [butaprost], on human HP4 receptor [1], the “competition of [3H]-PGE2 binding” value was “displaced”. Also, the “activity at the putative EP2 receptor clone” value in the experiment on putative EP2 receptor is “inactive”. Regarding `CS(=O)(=O)NC(=O)CCC/C=C\C[C@H]1C(=O)C[C@@H](O)[C@@H]1/C=C/[C@@H](O)COc1ccccc1` [Sulprostone], the “competition of [3H]-PGE2 binding” value at human HP4 receptor [1] is “inactive”.
